Several values for one entry are separate records, joined by “and”; a condition that tells them apart may be missing. Equal values may be shown once.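 A five-concentration, 48-hour dose response in 96-well plates underlies each endpoint, interpolated linearly between surrounding concentrations. GI50: concentration for 50% inhibition of growth. TGI denotes the concentration required for complete inhibition of growth.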
Legend:
Assay in all cases: growth of human tumour cells (NCI), 48 h
A549 NSCLC = tested on: A549 NSCLC
CAKI-1 renal = tested on: CAKI-1 renal
HL-60(TB) leukemia = tested on: HL-60(TB) leukemia
HT29 colon = tested on: HT29 colon
MOLT-4 leukemia = tested on: MOLT-4 leukemia
NCI-H23 lung = tested on: NCI-H23 lung
NCI/ADR-RES ovarian = tested on: NCI/ADR-RES ovarian
PC-3 prostate = tested on: PC-3 prostate
SK-MEL-28 melanoma = tested on: SK-MEL-28 melanoma
UACC-257 melanoma = tested on: UACC-257 melanoma

SMILES	GI50 (A549 NSCLC)	TGI (A549 NSCLC)	GI50 (CAKI-1 renal)	TGI (CAKI-1 renal)	GI50 (HL-60(TB) leukemia)	TGI (HL-60(TB) leukemia)	GI50 (HT29 colon)	TGI (HT29 colon)	GI50 (MOLT-4 leukemia)	TGI (MOLT-4 leukemia)	GI50 (NCI-H23 lung)	TGI (NCI-H23 lung)	GI50 (NCI/ADR-RES ovarian)	TGI (NCI/ADR-RES ovarian)	GI50 (PC-3 prostate)	TGI (PC-3 prostate)	GI50 (SK-MEL-28 melanoma)	TGI (SK-MEL-28 melanoma)	GI50 (UACC-257 melanoma)	TGI (UACC-257 melanoma)
Cc1nc(-c2cnc(NC(C)C)n(C)c2=O)ccc1Oc1ccnc(-c2cnn(C)c2)c1	15 µM	> 100 µM	7.51 µM	65.2 µM	4.31 µM	26.6 µM	5.28 µM	68 µM	5.16 µM	35.2 µM	13.3 µM	> 100 µM	8.35 µM	> 100 µM	16.5 µM	> 100 µM	14.2 µM	> 100 µM	12 µM	55.1 µM
C[C@H](CS)C(=O)N1c2ccccc2C[C@H]1C(=O)O	–	> 100 µM	–	> 100 µM	–	> 100 µM	–	> 100 µM	–	> 100 µM	–	> 100 µM	–	> 100 µM	–	> 100 µM	–	> 100 µM	–	> 100 µM
C/C(=N/O)c1ccc2c(c1)/C(=N/O)c1ccccc1-2	24 µM	62.9 µM	20.3 µM	44.8 µM	15.8 µM	35.7 µM	18.2 µM	40.7 µM	20.2 µM	49.4 µM	18.3 µM	34.2 µM	21 µM	48.6 µM	24.2 µM	57.4 µM	17.9 µM	39.9 µM	29.4 µM	65.5 µM
CCCCCCCCCCCCCCCCCCOc1ccccc1CC(=O)OCC[N+](CC)(CC)CC	1.44 µM	7.42 µM	1.42 µM	4.47 µM	0.926 µM	2.78 µM	1.63 µM	8.58 µM	1.26 µM	3.07 µM	1.16 µM	4.09 µM	7.58 µM	17.5 µM	1.2 µM	3.18 µM	1.9 µM	7.55 µM	1.42 µM	5.1 µM
CCOc1ccc2c(c1)CN(Cc1ccc(Cl)cc1)CO2	35.1 µM	> 100 µM	16.3 µM	43.2 µM	19.2 µM	42.8 µM	20.3 µM	40.4 µM	19.3 µM	67.5 µM	25.8 µM	94.5 µM	19.4 µM	48.9 µM	27.9 µM	> 100 µM	14.4 µM	28.4 µM	16 µM	35.8 µM
ClCc1ccc(Cn2cnc3c(Cl)ncnc32)cc1	11.2 µM	38.3 µM	2.26 µM	8.78 µM	10.1 µM	23.1 µM	> 45 µM	> 100 µM	11.8 µM	> 56.2 µM	6.99 µM	17.3 µM	10.8 µM	25.2 µM	18 µM	56.3 µM	> 28.1 µM	> 55.7 µM	24.2 µM	50 µM
CCCCN=C(N)c1ccc(N2CCCN(c3ccc(C(N)=NCCCC)cc3)CC2)cc1	4.07 µM	> 100 µM	> 72.3 µM	> 100 µM	–	0.159 µM	10.7 µM	> 59.7 µM	25.2 µM	> 100 µM	5.67 µM	> 100 µM	> 100 µM	> 100 µM	11.5 µM	> 100 µM	31.2 µM	> 100 µM	10 µM	66.8 µM
COc1ccc2nc3cc([N+](=O)[O-])ccc3c(NNc3ccccc3)c2c1	–	37.8 µM and > 100 µM	–	35.1 µM and > 100 µM	–	59.8 µM and > 84 µM	–	29.9 µM and 39.2 µM	12.5 µM	65.8 µM and 74.4 µM	12.1 µM	28.1 µM and > 90.5 µM	12.8 µM	55.1 µM and > 100 µM	10.4 µM	40.4 µM and > 100 µM	15.3 µM	34.9 µM and > 100 µM	17.3 µM	51.5 µM and > 100 µM
NC(Cc1c[nH]c2ccc(F)cc12)C(=O)O (stereo not given)	855 µM	> 2500 µM	1270 µM	> 2500 µM	737 µM	> 2500 µM	911 µM	> 2500 µM	1030 µM	> 2500 µM	1540 µM	> 2500 µM	675 µM	> 2500 µM	780 µM	> 2500 µM	795 µM	> 2500 µM	475 µM	1220 µM
O=C(CCl)Nc1cc(Cl)c(Cl)cc1Cl	–	4.56 µM	–	4.88 µM	–	7.74 µM	–	3.7 µM	–	> 10 µM	–	3.28 µM	–	5.31 µM	–	3.29 µM	–	4.04 µM	–	3.24 µM
C(=Nc1cnc2ccccc2c1)c1ccc2ccccc2n1	–	> 100 µM	–	> 100 µM	–	> 100 µM	–	> 100 µM	–	> 100 µM	–	> 100 µM	–	> 100 µM	–	> 100 µM	–	> 100 µM	–	> 100 µM
OCc1ccc(N2CCc3cc(F)ccc3C2)cc1Cl	0.389 µM	14.5 µM	1.34 µM	13.6 µM	1.64 µM	29.1 µM	0.167 µM	14.1 µM	15 µM	47.4 µM	12.8 µM	30.2 µM	11.3 µM	33.7 µM	11 µM	27.6 µM	13.8 µM	26.9 µM	0.0197 µM	0.0723 µM
COc1ccc(C(=O)O[C@H]2[C@H](O[C@H]3[C@@H](O)COC(O[C@H]4C[C@H]5[C@@H]6CC=C7C[C@@H](O)CC[C@]7(C)[C@H]6CC[C@]5(C)[C@H]4[C@H](C)C(=O)CCC(C)C)[C@@H]3OC(C)=O)OC[C@@H](O)[C@@H]2O)c(C)c1 (stereo not given in full)	< 0.01 µM	> 100 µM	< 0.01 µM	1.08 µM	0.0133 µM	28.2 µM	0.0712 µM	21.6 µM	< 0.01 µM	11.2 µM	0.0574 µM	15.4 µM	8.48 µM	86.1 µM	< 0.01 µM	2.14 µM	< 0.01 µM	< 0.01 µM	0.0196 µM	0.0621 µM
CN(C)Cc1ccc(C(C)(C)C)cc1-c1cc(C(C)(C)C)ccc1CN(C)C	–	> 100 µM	–	> 100 µM	–	> 100 µM	–	> 100 µM	–	> 100 µM	–	> 100 µM	–	> 100 µM	–	> 100 µM	–	> 100 µM	–	51.7 µM
COc1ccc(Cn2cc3c(c2)-c2oncc2CC3)cc1OC	0.283 µM	48.4 µM	0.193 µM	> 31.3 µM	0.126 µM	0.439 µM	0.153 µM	1.28 µM	0.274 µM	> 12.2 µM	0.2 µM	> 25.3 µM	0.132 µM	1.38 µM	0.395 µM	> 50 µM	0.326 µM	> 50 µM	1.69 µM	22.3 µM
CN(C)C=NC1CCC(C(C)(C)C)CC1 (stereo not given)	–	38.9 µM	–	33.1 µM	–	33.2 µM	–	21.6 µM	–	32.2 µM	–	34.3 µM	–	32.8 µM	–	30.3 µM	–	29.4 µM	–	29.1 µM
COc1cccc(/C=C/c2ccnc3ccccc23)c1OC	–	> 10 µM	–	> 10 µM	–	> 10 µM	–	> 10 µM	–	> 10 µM	–	> 10 µM	–	> 10 µM	–	> 10 µM	–	> 10 µM	–	> 10 µM
C[C@@H](NC(=O)c1ncnc(N)c1Cl)c1ncc(C(=O)Nc2cc(C(F)(F)F)c(Cl)cn2)s1	18 µM	64.4 µM	25.4 µM	71.6 µM	3.3 µM	29 µM	1.07 µM	46.2 µM	23 µM	68.7 µM	10.8 µM	57.9 µM	24.5 µM	82.5 µM	25.3 µM	> 76.6 µM	0.696 µM	15.8 µM	0.478 µM	4.77 µM
COc1ccc(Cl)cc1Nc1nc(C(F)(F)F)ccc1C(=O)N/N=C/c1cccnc1	5.49 µM	> 100 µM	3.84 µM	> 100 µM	1.95 µM	> 100 µM	6.01 µM	> 100 µM	1.66 µM	> 100 µM	5.34 µM	> 100 µM	3.8 µM	> 100 µM	3.8 µM	> 100 µM	3.95 µM	> 100 µM	3.93 µM	9.88 µM
Cc1ccc(/C=C/c2c(C(=O)/C=C/c3ccc(Cl)cc3)c(C)nc3ccccc23)cc1	2.45 µM	6.85 µM	1.27 µM	2.74 µM	2.12 µM	5.76 µM	2.05 µM	14.9 µM	2.18 µM	> 100 µM	1.38 µM	3.22 µM	1.99 µM	4.45 µM	2.2 µM	6.42 µM	1.84 µM	3.41 µM	2.15 µM	4.8 µM
Cc1ccc(NC(=O)Nc2c(Cl)cccc2Cl)cn1	8.51 µM	43 µM	5.78 µM	> 100 µM	4.23 µM	29.7 µM	3.93 µM	15.6 µM	6.38 µM	32.4 µM	26.1 µM	> 100 µM	4.46 µM	70.3 µM	25.2 µM	> 100 µM	58.2 µM	> 100 µM	71.4 µM	> 100 µM

Reference: PubChem BioAssay (NCI)
